Values quoted from earlier work as cited in patent publication US20240366545A1, “ANTIBACTERIAL PORPHYRIN NANOPARTICLES AND METHODS FOR MAKING AND USING THE SAME” (priority 2021, published 2024).

Tested on: normal mammalian cells

In the case of `CCCCCCCCCCCCCCCC[N+](C)(C)C.[Br-]` [CTAB, cetyl trimethylammonium bromide], the toxic concentration is given as no less than 10 µM.
